Experimental data taken from patent US20090137661A1, “PLANT DERIVED COMPOUNDS AND COMPOUND FORMULAE CONTAINING THE SAME FOR THE TREATMENT OF CERVICAL CANCER” (priority 2007, published 2009).
Counter-ions that a name gives are not always drawn. Like-named read-outs stand apart in the source and are kept apart here.

Tests used:
HeLa cells = test: Cytotoxicity assay (MTT assay) on HeLa cells; conditions: for IC50: Homo sapiens, HeLa
Experimental: HeLa cell line was obtained from Dr. S. S. Shen (Biomedical Engineering Research Laboratories of Industrial Technology Research Institute of Taiwan). HeLa cells are adherent cells and were propagated and maintained in Dulbecco's modified Eagle's medium (DMEM) supplemented with 10% fetal bovine serum (FBS), […] sodium bicarbonate (NaHCO3), 1 mM sodium pyruvate, and 0.1 mM non-essential amino acid.
(§1) Cytotoxicity Assay (MTT Assay)
The cytotoxicity of the compounds set forth herein to HeLa cells and HUVEC cells were determined by the MTT assay. The HUVEC cells were used to understand the cytotoxicity of said compounds to normal human cells. Besides, doxorubicin HCl was used as a comparative example so as to investigate the efficacy of the compounds according to the embodiments of the present invention.
Briefly, the MTT assay comprises the following steps: • (A) Cells were seeded in 96-well plates 3 hours before treatment, wherein the density of HeLa cell is 1×10^4 cells per well and the density of HUVEC cell is 2×10^4 cells per well; • (B) Cells were then treated with various concentrations of tested samples and incubated for a predetermined period (24, 48, and 72 hours); • (C) After the predetermined periods expired, the tested samples were removed and 100 μl MTT reagent (1 mg/ml) was added to each well; • (D) The plates were incubated at 37° C. with 5% of CO2 for 5 hours; • (E) The MTT reagent was removed and 100 μl DMSO was added to each well; • (F) The optical density (O.D.) of each well was determined by ELISA reader at a wavelength of 560 nm.
Each experiment was repeated for 3 times and the result shown in the tables herein were the mean value of the 3 repetitions. The O.D. of the vehicle control and experimental groups were recorded. The cell survival rate of each sample was calculated as follows:
Cell survival rate(%)=O.D.control/O.D.experimental*100%
Then, the cell survival rate was plotted against the compound concentration and the IC50 value of each compound was calculated by the GraFit data analysis software (Erithacus Software Ltd.).

HUVEC cells = test: Cytotoxicity assay (MTT assay) on HUVEC cells; type: cell-based, human; conditions: for IC50 at 24 hours, HUVEC / IC50 at 48 hours, HUVEC / IC50 at 72 hours, HUVEC / IC50: HUVEC cells; for IC50: Homo sapiens
From the text: Human umbilical vein endothelial cells (HUVEC) were purchased from Food Industry Research and Development Institute in Hsin-Chu City, Taiwan. HUVEC cells were propagated and maintained in Medium 199 supplemented with 10% FBS, Heparin, and […].
as §1

HPV 16 pseudovirus = test: Screening for anti-infection compounds (GFP-expressing HPV 16 pseudovirus infecting HeLa cells); type: cell-based, human papilloma virus 16; conditions: HeLa cells infected with 0.25 μl HPV 16 pseudovirus per well, 48 hours
Experimental: […] were co-transfected with codon-modified papillomavirus capsid genes, L1 and L2, plasmid: p16shell, and a GFP reporter plasmid, pClneo-GFP, to monitor the infectivity of the stock.
The GFP-expressing HPV 16 pseudoviruses were prepared and harvested in accordance with the protocol provided by the National Cancer Institute (USA). Said protocol is available on line at http://home.ccr.cancer.gov/lco/production.asp which is incorporated herein by reference in its entirety.
In the present application, the GFP-expressing HPV 16 pseudoviruses used have titers of about 4*10^8 infectious units per ml.
HeLa cells were seeded in 96-well plates at a density of 6×10^3 cells per well. 24 hours later, 2×HPV 16 pseudoviruses of various volumes were added. The signal to background ratio of each volume of the HPV 16 pseudoviruses was illustrated in FIG. 2.
When choosing screening platform, the infection rate should be around 20%. […] Under this dosage, the signal to background ratio is 2.0-2.5.
Carrageenan was used as positive control. […] The cell survival rate and IC50 of each sample were obtained in accordance with the method stated above.

COc1ccc2cc3[n+](cc2c1OC)CCc1cc2c(cc1-3)OCO2.[Cl-] [Compound H, berberine hydrochloride]
cytotoxicity to HeLa cells compared with Doxorubicin HCl (HeLa cells): higher cytotoxicity
HeLa Cell Survival Rate (HeLa cells; 0.1 μg/ml, 24 hrs): 89%
HeLa Cell Survival Rate (HeLa cells; 0.1 μg/ml, 48 hrs): 98%
HeLa Cell Survival Rate (HeLa cells; 0.1 μg/ml, 72 hrs): 98%
HeLa Cell Survival Rate (HeLa cells; 1 μg/ml, 24 hrs): 87%
HeLa Cell Survival Rate (HeLa cells; 1 μg/ml, 48 hrs): 84%
HeLa Cell Survival Rate (HeLa cells; 1 μg/ml, 72 hrs): 91%
HeLa Cell Survival Rate (HeLa cells; 10 μg/ml, 24 hrs): 82%
HeLa Cell Survival Rate (HeLa cells; 10 μg/ml, 48 hrs): 71%
HeLa Cell Survival Rate (HeLa cells; 10 μg/ml, 72 hrs): 62%
HeLa Cell Survival Rate (HeLa cells; 100 μg/ml, 24 hrs): 28%
HeLa Cell Survival Rate (HeLa cells; 100 μg/ml, 48 hrs): 17%
HeLa Cell Survival Rate (HeLa cells; 100 μg/ml, 72 hrs): 10%
HUVEC/HeLa ratio of IC50 (HeLa cells; 24 hours): 0.8
HUVEC/HeLa ratio of IC50 (HeLa cells; 48 hours): 0.7
HUVEC/HeLa ratio of IC50 (HeLa cells; 72 hours): 0.6
IC50 at 24 hours, HeLa (HeLa cells; HeLa cells, 24 hours): 39 µg/mL
IC50 at 72 hours, HeLa (HeLa cells; HeLa cells, 72 hours): 15 µg/mL
IC50 for inhibiting HeLa cells as restated in text (HeLa cells; values taken from tables 4 and 5 (48 hours), unit inferred): 21 µg/mL
HUVEC Cell Survival Rate (HUVEC cells; 1 μg/ml, 24 hrs): 89%
HUVEC Cell Survival Rate (HUVEC cells; 1 μg/ml, 48 hrs): 81%
HUVEC Cell Survival Rate (HUVEC cells; 1 μg/ml, 72 hrs): 77%
HUVEC Cell Survival Rate (HUVEC cells; 10 μg/ml, 24 hrs): 76%
HUVEC Cell Survival Rate (HUVEC cells; 10 μg/ml, 48 hrs): 64%
HUVEC Cell Survival Rate (HUVEC cells; 10 μg/ml, 72 hrs): 51%
HUVEC Cell Survival Rate (HUVEC cells; 100 μg/ml, 24 hrs): 23%
HUVEC Cell Survival Rate (HUVEC cells; 100 μg/ml, 48 hrs): 16%
HUVEC Cell Survival Rate (HUVEC cells; 100 μg/ml, 72 hrs): 15%
IC50 at 24 hours, HUVEC (HUVEC cells; 24 hours): 30 µg/mL
IC50 at 48 hours, HUVEC (HUVEC cells; 48 hours): 15 µg/mL
IC50 at 72 hours, HUVEC (HUVEC cells; 72 hours): 9 µg/mL

COc1cccc2c1C(=O)c1c(O)c3c(c(O)c1C2=O)C[C@@](O)(C(=O)CO)C[C@@H]3O[C@H]1C[C@H](N)[C@H](O)[C@H](C)O1 [Doxorubin HCl, Doxorubicin HCl, reference compound]
HeLa Cell Survival Rate (HeLa cells; 0.00058 μg/ml, 24 hrs): 96%
HeLa Cell Survival Rate (HeLa cells; 0.00058 μg/ml, 48 hrs): 100%
HeLa Cell Survival Rate (HeLa cells; 0.00058 μg/ml, 72 hrs): 97%
HeLa Cell Survival Rate (HeLa cells; 0.0058 μg/ml, 24 hrs): 95%
HeLa Cell Survival Rate (HeLa cells; 0.0058 μg/ml, 48 hrs): 92%
HeLa Cell Survival Rate (HeLa cells; 0.0058 μg/ml, 72 hrs): 89%
HeLa Cell Survival Rate (HeLa cells; 0.058 μg/ml, 24 hrs): 84%
HeLa Cell Survival Rate (HeLa cells; 0.058 μg/ml, 48 hrs): 81%
HeLa Cell Survival Rate (HeLa cells; 0.058 μg/ml, 72 hrs): 72%
HeLa Cell Survival Rate (HeLa cells; 0.58 μg/ml, 24 hrs): 46%
HeLa Cell Survival Rate (HeLa cells; 0.58 μg/ml, 48 hrs): 23%
HeLa Cell Survival Rate (HeLa cells; 0.58 μg/ml, 72 hrs): 11%
HUVEC/HeLa ratio of IC50 (HeLa cells; 24 hours): >1.2
HUVEC/HeLa ratio of IC50 (HeLa cells; 48 hours): 1.5
HUVEC/HeLa ratio of IC50 (HeLa cells; 72 hours): 1.8
IC50 (HeLa cells; 24 h, read-out: IC50 at 24 hours, HeLa): 0.48 µg/mL
IC50 (HeLa cells; 48 h, read-out: IC50 at 48 hours, HeLa): 0.2 µg/mL
IC50 (HeLa cells; 72 h, read-out: IC50 at 72 hours, HeLa): 0.12 µg/mL
HUVEC Cell Survival Rate (HUVEC cells; 0.145 μg/ml, 24 hrs): 111%
HUVEC Cell Survival Rate (HUVEC cells; 0.145 μg/ml, 48 hrs): 77%
HUVEC Cell Survival Rate (HUVEC cells; 0.145 μg/ml, 72 hrs): 68%
HUVEC Cell Survival Rate (HUVEC cells; 0.290 μg/ml, 24 hrs): 100%
HUVEC Cell Survival Rate (HUVEC cells; 0.290 μg/ml, 48 hrs): 56%
HUVEC Cell Survival Rate (HUVEC cells; 0.290 μg/ml, 72 hrs): 38%
HUVEC Cell Survival Rate (HUVEC cells; 0.580 μg/ml, 24 hrs): 90%
HUVEC Cell Survival Rate (HUVEC cells; 0.580 μg/ml, 48 hrs): 19%
HUVEC Cell Survival Rate (HUVEC cells; 0.580 μg/ml, 72 hrs): 14%
IC50 (HUVEC cells; 24 hours, read-out: IC50 at 24 hours, HUVEC): > 0.58 µg/mL
IC50 (HUVEC cells; 48 hours, read-out: IC50 at 48 hours, HUVEC): 0.299 µg/mL
IC50 (HUVEC cells; 72 hours, read-out: IC50 at 72 hours, HUVEC): 0.22 µg/mL

Carrageenan [reference compound]
IC50 for inhibiting HPV 16 pseudoviruses (HPV 16 pseudovirus): about 0.07 μg/ml

isopsoralen [Compound A]
HeLa Cell Survival Rate (HeLa cells; 0.125 μg/ml, 24 hrs): 91%
HeLa Cell Survival Rate (HeLa cells; 0.125 μg/ml, 48 hrs): 99%
HeLa Cell Survival Rate (HeLa cells; 0.125 μg/ml, 72 hrs): 98%
HeLa Cell Survival Rate (HeLa cells; 1.25 μg/ml, 24 hrs): 88%
HeLa Cell Survival Rate (HeLa cells; 1.25 μg/ml, 48 hrs): 75%
HeLa Cell Survival Rate (HeLa cells; 1.25 μg/ml, 72 hrs): 69%
HeLa Cell Survival Rate (HeLa cells; 12.5 μg/ml, 24 hrs): 70%
HeLa Cell Survival Rate (HeLa cells; 12.5 μg/ml, 48 hrs): 30%
HeLa Cell Survival Rate (HeLa cells; 12.5 μg/ml, 72 hrs): 10%
HeLa Cell Survival Rate (HeLa cells; 125 μg/ml, 24 hrs): 18%
HeLa Cell Survival Rate (HeLa cells; 125 μg/ml, 48 hrs): 11%
HeLa Cell Survival Rate (HeLa cells; 125 μg/ml, 72 hrs): 7%
HUVEC/HeLa ratio of IC50 (HeLa cells; 24 hours): >4.6
HUVEC/HeLa ratio of IC50 (HeLa cells; 48 hours): 11.4
HUVEC/HeLa ratio of IC50 (HeLa cells; 72 hours): 19
IC50 at 24 hours, HeLa (HeLa cells; HeLa cells, 24 hours): 27 µg/mL
IC50 at 48 hours, HeLa (HeLa cells; HeLa cells, 48 hours): 5 µg/mL
IC50 at 72 hours, HeLa (HeLa cells; HeLa cells, 72 hours): 2 µg/mL
cytotoxicity to HeLa cells compared with Doxorubicin HCl (HeLa cells; under the corresponding conditions): higher cytotoxicity
HUVEC Cell Survival Rate (HUVEC cells; 0.125 μg/ml, 24 hrs): 103%
HUVEC Cell Survival Rate (HUVEC cells; 0.125 μg/ml, 48 hrs): 104%
HUVEC Cell Survival Rate (HUVEC cells; 0.125 μg/ml, 72 hrs): 92%
HUVEC Cell Survival Rate (HUVEC cells; 1.25 μg/ml, 24 hrs): 103%
HUVEC Cell Survival Rate (HUVEC cells; 1.25 μg/ml, 48 hrs): 96%
HUVEC Cell Survival Rate (HUVEC cells; 1.25 μg/ml, 72 hrs): 87%
HUVEC Cell Survival Rate (HUVEC cells; 12.5 μg/ml, 24 hrs): 100%
HUVEC Cell Survival Rate (HUVEC cells; 12.5 μg/ml, 48 hrs): 83%
HUVEC Cell Survival Rate (HUVEC cells; 12.5 μg/ml, 72 hrs): 80%
HUVEC Cell Survival Rate (HUVEC cells; 125 μg/ml, 24 hrs): 67%
HUVEC Cell Survival Rate (HUVEC cells; 125 μg/ml, 48 hrs): 31%
HUVEC Cell Survival Rate (HUVEC cells; 125 μg/ml, 72 hrs): 19%
IC50 at 24 hours, HUVEC (HUVEC cells; 24 hours): >125 µg/mL
IC50 at 48 hours, HUVEC (HUVEC cells; 48 hours): 57 µg/mL
IC50 at 72 hours, HUVEC (HUVEC cells; 72 hours): 38 µg/mL
